Measurements reported in ChEMBL document CHEMBL4145560, “Conformationally Constrained Cinnolinone Nucleoside Analogues as Siderophore Biosynthesis Inhibitors for Tuberculosis” (ACS Med Chem Lett, 2018).
Calls of active or inactive are those of the source. The calls are words filed in the database; no cut-off is given here.

System: Mycobacterium tuberculosis
Assay: Antimycobacterial activity against Mycobacterium tuberculosis overexpressing Rv0560c-OE in iron-free GAST medium at 0.04 to 10 uM after 8 days by two fold serial dilution method
Assay type: functional, organism-based

SMILES: Nc1ncnc2c1ncn2[C@@H]1O[C@H](COS(=O)(=O)NC(=O)c2ccccc2O)[C@@H](O)[C@H]1O
- Activity: Active
